Values after ≈ are worked out from the molar mass of the structure shown.
Experiments:
Test in all cases: In vitro antibacterial evaluation: minimum inhibitory concentration (MIC), broth dilution method
Type in all cases: cell-based
[1] = test system: Enterococcus sp.; conditions: 18 hours at 35° C.
Method: (§1) The minimum inhibitory concentration (MIC), the lowest concentration of the antibiotic which inhibits growth of the test organism, is determined by the broth dilution method using Muller-Hinton II […] (Baltimore Biological Laboratories) following the recommendations of the National Committee for Clinical Laboratory Standards [Methods for dilution antimicrobial susceptibility tests for bacteria that grow aerobically, approved standard M7-A2, National Committee for Clinical Laboratory Standards, Villanova, Pa].
(§2) An inoculum level of 5×10^5 CFU/mL, and a range of antibiotic concentrations (64-0.06 μg/mL) is used. […] The test organisms include a spectrum of Gram-positive bacteria comprised of Staphylococcus sp., Streptococcus sp. and Enterococcus sp. These organisms include recent clinical isolates that are resistant to methicillin, penicillin and/or vancomycin.

[2] = test system: Streptococcus sp.; conditions: 18 hours at 35° C.
Method: as §1, §2

[3] = test system: Escherichia coli; conditions: 18 hours at 35° C.
Method: as §1, §2

[4] = test system: Staphylococcus sp.
Method: as §1, §2

[5] = Enterococcus faecalis (ATCC 29212)
[6] = Enterococcus faecalis (GC 2242)
[7] = Enterococcus faecalis (GC 2691)
[8] = Enterococcus faecalis (GC 3059)
[9] = Enterococcus faecalis (GC 4552)
[10] = Enterococcus faecalis (GC 4553)
[11] = Enterococcus faecalis (GC 4554)
[12] = Enterococcus faecalis (GC 6189)
[13] = broth dilution, inoculum 5×10^5 CFU/mL
[14] = Streptococcus agalactiae (GC 4564)
[15] = Streptococcus pneumoniae (ATCC 6301)
[16] = Streptococcus pneumoniae (GC 1894)
[17] = Streptococcus pneumoniae (GC 4565)
[18] = Streptococcus pyogenes (GC 4563)

## N=C1NCC(C(O)C2NC(=O)C(CC3CCC(OC4OC(CO)C(OC5OC6COC7(OC6C(O)C5O)C5CC6CC(C5)CC7C6)C(O)C4O)CC3)NC(=O)C(CC3CCCCC3)NC(=O)CNC(=O)C(CO)NC(=O)C(C(O)C3CNC(=N)N3C3OC(CO)C(O)C(O)C3O)NC2=O)N1 (stereo not shown) [Example 222]
[1]; Enterococcus avium (GC 4558)
  MIC Enterococcus avium (GC 4558): 64 µg/mL (≈ 44.9 µM)
[1]; [5]
  MIC Enterococcus faecalis (ATCC 29212): >64 µg/mL
[1]; [6]
  MIC Enterococcus faecalis (GC 2242): >64 µg/mL
[1]; [7]
  MIC Enterococcus faecalis (GC 2691): >64 µg/mL
[1]; [8]
  MIC Enterococcus faecalis (GC 3059): >64 µg/mL
[1]; [9]
  MIC Enterococcus faecalis (GC 4552): >64 µg/mL
[1]; [10]
  MIC Enterococcus faecalis (GC 4553): >64 µg/mL
[1]; [11]
  MIC Enterococcus faecalis (GC 4554): >64 µg/mL
[1]; [12]
  MIC Enterococcus faecalis (GC 6189): >64 µg/mL
[1]; Enterococcus faecium (GC 2243)
  MIC Enterococcus faecium (GC 2243): >64 µg/mL
[1]; Enterococcus faecium (GC 4556)
  MIC Enterococcus faecium (GC 4556): >64 µg/mL
[1]; Enterococcus faecium (GC 4557)
  MIC Enterococcus faecium (GC 4557): 64 µg/mL (≈ 44.9 µM)
[1]; [13]
  MIC Enterococcus avium (GC 4558): 64 µg/mL (≈ 44.9 µM)
  MIC Enterococcus faecalis (ATCC 29212): >64 µg/mL
  MIC Enterococcus faecalis (GC 2242): >64 µg/mL
  MIC Enterococcus faecalis (GC 2691): >64 µg/mL
  MIC Enterococcus faecalis (GC 3059): >64 µg/mL
  MIC Enterococcus faecalis (GC 4552): >64 µg/mL
  MIC Enterococcus faecalis (GC 4553): >64 µg/mL
  MIC Enterococcus faecalis (GC 4554): >64 µg/mL
  MIC Enterococcus faecalis (GC 6189): >64 µg/mL
  MIC Enterococcus faecium (GC 2243): >64 µg/mL
  MIC Enterococcus faecium (GC 4556): >64 µg/mL
  MIC Enterococcus faecium (GC 4557): 64 µg/mL (≈ 44.9 µM)
[2]; [14]
  MIC Streptococcus agalactiae (GC 4564): >64 µg/mL
[2]; [15]
  MIC Streptococcus pneumoniae (ATCC 6301): 64 µg/mL (≈ 44.9 µM)
[2]; [16]
  MIC Streptococcus pneumoniae (GC 1894): 32 µg/mL (≈ 22.4 µM)
[2]; [17]
  MIC Streptococcus pneumoniae (GC 4565): 64 µg/mL (≈ 44.9 µM)
[2]; [18]
  MIC Streptococcus pyogenes (GC 4563): 64 µg/mL (≈ 44.9 µM)
[2]; [13]
  MIC Streptococcus agalactiae (GC 4564): >64 µg/mL
  MIC Streptococcus pneumoniae (ATCC 6301): 64 µg/mL (≈ 44.9 µM)
  MIC Streptococcus pneumoniae (GC 1894): 32 µg/mL (≈ 22.4 µM)
  MIC Streptococcus pneumoniae (GC 4565): 64 µg/mL (≈ 44.9 µM)
  MIC Streptococcus pyogenes (GC 4563): 64 µg/mL (≈ 44.9 µM)
[3]
  MIC Escherichia coli (ATCC 25922): >64 µg/mL
  MIC Escherichia coli (GC 4559): >64 µg/mL
  MIC Escherichia coli (GC 4560): 64 µg/mL (≈ 44.9 µM)
[4]; strain ATCC 29213
  MIC Staphylococcus aureus (ATCC 29213): >64 µg/mL
[4]; strain GC 1131
  MIC Staphylococcus aureus (GC 1131): >64 µg/mL
[4]; strain GC 3051
  MIC Staphylococcus aureus (GC 3051): >64 µg/mL
[4]; strain GC 3053
  MIC Staphylococcus aureus (GC 3053): >64 µg/mL
[4]; strain GC 4541
  MIC Staphylococcus aureus (GC 4541): >64 µg/mL
[4]; strain GC 4542
  MIC Staphylococcus aureus (GC 4542): >64 µg/mL
[4]; strain GC 4543
  MIC Staphylococcus aureus-SMITH (GC 4543): >64 µg/mL
[4]; strain GC 4544
  MIC Staphylococcus aureus (GC 4544): >64 µg/mL
[4]; strain GC 4545
  MIC Staphylococcus aureus (GC 4545): >64 µg/mL
[4]; strain GC 4546
  MIC Staphylococcus haemolyticus (GC 4546): >64 µg/mL
[4]; strain GC 4547
  MIC Coagulase Negative Staphylococcus (GC 4547): >64 µg/mL
[4]; strain GC 4548
  MIC Coagulase Negative Staphylococcus (GC 4548): >64 µg/mL
[4]; strain GC 4549
  MIC Coagulase Negative Staphylococcus (GC 4549): >64 µg/mL
[4]; strain GC 4551
  MIC Coagulase Negative Staphylococcus (GC 4551): >64 µg/mL

## CC(c1ccccc1)C1NC(=O)CNC(=O)C(CO)NC(=O)C(C(O)C2CNC(=N)N2C2OC(CO)C(O)C(O)C2O)NC(=O)C(C(O)C2CNC(=N)N2)NC(=O)C(Cc2ccc(OC3OC(CO)C(OC4OC(COCc5cccs5)C(O)C(O)C4O)C(O)C3O)cc2)NC1=O (stereo not drawn) [Example 244, Cyclo[glycyl-β-methylphenylalanyl-O-[4-O-[6-O-(2-thienylmethyl)hexopyranosyl]hexopyranosyl]tyrosyl-3-(2-iminoimidazolidin-4-yl)seryl-3-(3-hexopyranosyl-2-iminoimidazolidin-4-yl)serylseryl]]
[1]; Enterococcus avium (GC 4558)
  MIC Enterococcus avium (GC 4558): 32 µg/mL (≈ 23 µM)
[1]; [5]
  MIC Enterococcus faecalis (ATCC 29212): 32 µg/mL (≈ 23 µM)
[1]; [6]
  MIC Enterococcus faecalis (GC 2242): 32 µg/mL (≈ 23 µM)
[1]; [7]
  MIC Enterococcus faecalis (GC 2691): 32 µg/mL (≈ 23 µM)
[1]; [8]
  MIC Enterococcus faecalis (GC 3059): 64 µg/mL (≈ 46 µM)
[1]; [9]
  MIC Enterococcus faecalis (GC 4552): 32 µg/mL (≈ 23 µM)
[1]; [10]
  MIC Enterococcus faecalis (GC 4553): 32 µg/mL (≈ 23 µM)
[1]; [11]
  MIC Enterococcus faecalis (GC 4554): 64 µg/mL (≈ 46 µM)
[1]; [12]
  MIC Enterococcus faecalis (GC 6189): 32 µg/mL (≈ 23 µM)
[1]; Enterococcus faecium (GC 2243)
  MIC Enterococcus faecium (GC 2243): 32 µg/mL (≈ 23 µM)
[1]; Enterococcus faecium (GC 4556)
  MIC Enterococcus faecium (GC 4556): 32 µg/mL (≈ 23 µM)
[1]; Enterococcus faecium (GC 4557)
  MIC Enterococcus faecium (GC 4557): 4 µg/mL (≈ 2.87 µM)
[1]; [13]
  MIC Enterococcus faecalis (GC 2242): 32 µg/mL (≈ 23 µM)
  MIC Enterococcus faecalis (GC 2691): 32 µg/mL (≈ 23 µM)
  MIC Enterococcus faecalis (GC 3059): 64 µg/mL (≈ 46 µM)
[2]; [14]
  MIC Streptococcus agalactiae (GC 4564): 4 µg/mL (≈ 2.87 µM)
[2]; [15]
  MIC Streptococcus pneumoniae (ATCC 6301): 1 µg/mL (≈ 0.719 µM)
[2]; [16]
  MIC Streptococcus pneumoniae (GC 1894): 0.5 µg/mL (≈ 0.359 µM)
[2]; [17]
  MIC Streptococcus pneumoniae (GC 4565): 1 µg/mL (≈ 0.719 µM)
[2]; [18]
  MIC Streptococcus pyogenes (GC 4563): 2 µg/mL (≈ 1.44 µM)
[2]; [13]
  MIC Streptococcus agalactiae (GC 4564): 4 µg/mL (≈ 2.87 µM)
  MIC Streptococcus pneumoniae (ATCC 6301): 1 µg/mL (≈ 0.719 µM)
  MIC Streptococcus pneumoniae (GC 1894): 0.5 µg/mL (≈ 0.359 µM)
  MIC Streptococcus pneumoniae (GC 4565): 1 µg/mL (≈ 0.719 µM)
  MIC Streptococcus pyogenes (GC 4563): 2 µg/mL (≈ 1.44 µM)
[3]
  MIC Escherichia coli (ATCC 25922): >64 µg/mL
  MIC Escherichia coli (GC 4559): 64 µg/mL (≈ 46 µM)
  MIC Escherichia coli (GC 4560): 2 µg/mL (≈ 1.44 µM)
[4]; Coagulase Negative Staphylococcus (GC 4547), 18 hours at 35° C.
  MIC Coagulase Negative Staphylococcus (GC 4547): 4 µg/mL (≈ 2.87 µM)
[4]; Coagulase Negative Staphylococcus (GC 4548), 18 hours at 35° C.
  MIC Coagulase Negative Staphylococcus (GC 4548): 2 µg/mL (≈ 1.44 µM)
[4]; Coagulase Negative Staphylococcus (GC 4549), 18 hours at 35° C.
  MIC Coagulase Negative Staphylococcus (GC 4549): 2 µg/mL (≈ 1.44 µM)
[4]; Coagulase Negative Staphylococcus (GC 4551), 18 hours at 35° C.
  MIC Coagulase Negative Staphylococcus (GC 4551): 4 µg/mL (≈ 2.87 µM)
[4]; Coagulase Negative Staphylococcus (GC 6257), 18 hours at 35° C.
  MIC Coagulase Negative Staphylococcus (GC 6257): 2 µg/mL (≈ 1.44 µM)
[4]; Staphylococcus aureus (ATCC 29213), 18 hours at 35° C.
  MIC Staphylococcus aureus (ATCC 29213): 8 µg/mL (≈ 5.75 µM)
[4]; Staphylococcus aureus (GC 1131), 18 hours at 35° C.
  MIC Staphylococcus aureus (GC 1131): 8 µg/mL (≈ 5.75 µM)
[4]; Staphylococcus aureus (GC 3051), 18 hours at 35° C.
  MIC Staphylococcus aureus (GC 3051): 8 µg/mL (≈ 5.75 µM)
[4]; Staphylococcus aureus (GC 3053), 18 hours at 35° C.
  MIC Staphylococcus aureus (GC 3053): 16 µg/mL (≈ 11.5 µM)
[4]; Staphylococcus aureus (GC 4541), 18 hours at 35° C.
  MIC Staphylococcus aureus (GC 4541): 8 µg/mL (≈ 5.75 µM)
[4]; Staphylococcus aureus (GC 4542), 18 hours at 35° C.
  MIC Staphylococcus aureus (GC 4542): 1 µg/mL (≈ 0.719 µM)
[4]; Staphylococcus aureus (GC 4544), 18 hours at 35° C.
  MIC Staphylococcus aureus (GC 4544): 8 µg/mL (≈ 5.75 µM)
[4]; Staphylococcus aureus (GC 4545), 18 hours at 35° C.
  MIC Staphylococcus aureus (GC 4545): 8 µg/mL (≈ 5.75 µM)
[4]; Staphylococcus aureus-SMITH (GC 4543), 18 hours at 35° C.
  MIC Staphylococcus aureus-SMITH (GC 4543): 4 µg/mL (≈ 2.87 µM)
[4]; Staphylococcus haemolyticus (GC 4546), 18 hours at 35° C.
  MIC Staphylococcus haemolyticus (GC 4546): 4 µg/mL (≈ 2.87 µM)

Reference: US8247211B2, “Glycopeptide antibiotics” (American Cyanamid Company, priority 2001, dated 2012)
